From ChEMBL document CHEMBL3507680, “University of Dundee, Gates Library screen for HepG2 cell viability” come the findings set out here.

This data set is described as follows: Human HepG2 cell viability assay in 384 well format. The data set is classed as toxicity, cell-based. The arrangement: dose 125 nL, time 70.5 hour; concentration not given beside the values. The settings on record: HepG2 cells, read-out: Inhibition.
On to `CCc1cc(N2CCC(Nc3ccc4nnc(C)n4n3)CC2)ncn1`, for which the cytotoxicity at 70.5 h turned out to be 2.09%.

Turning to `O=C(c1cc[nH]n1)N1CCc2cc(Br)sc2C1`, the cytotoxicity at 70.5 h was determined as 15.1%.

As to `O=S(=O)(Cc1ccccc1)CC(O)Cn1cccn1` (stereo not given), the cytotoxicity at 70.5 h is -2.14%.

Regarding `CC(=O)NCCNC(=O)Nc1cc(C(C)(C)C)sc1C#N`, the cytotoxicity at 70.5 h was -1.29%.

Turning to `O=C(c1ccc(=O)[nH]n1)N1CCCC1C1CCCC1` (stereo not given), the cytotoxicity at 70.5 h was -0.243%.

Take `CCc1ncnc(N2CCCC(c3cc(C(N)=O)[nH]n3)C2)c1F` (stereo not given): the cytotoxicity at 70.5 h is -3.89%.

For `CC(C)c1cc(Br)ccc1NC(=O)NC(C)(CO)CO`, the cytotoxicity at 70.5 h was -5%.

As for `CCOCCSc1nnc(Cc2ccccc2F)o1`, the cytotoxicity at 70.5 h was -0.117%.

Take `Cc1cnn(CC(C)NCc2cccc(C#N)c2)c1` (stereo not given): the cytotoxicity at 70.5 h was found to be 2.17%.

Turning to `Cc1cnn(CC(C)NCc2cc(C#N)ccc2F)c1` (stereo not given), the cytotoxicity at 70.5 h was -5.57%.

Take `COCCOCCSc1nnc(Cc2ccccc2F)o1`: the cytotoxicity at 70.5 h was -4.09%.

On to `COc1ccc(C(C)NCc2ccnn2C)cc1Cn1cccn1` (stereo not given), for which the cytotoxicity at 70.5 h was -6.58%.

For `CN1CCOC(CNCC(=O)NCCC2=CCCCC2)C1` (stereo not given), the cytotoxicity at 70.5 h came to 4.71%.

In the case of `COc1ccccc1CCN(C)C(C)c1nc(-c2cccnc2)no1` (stereo not given), the cytotoxicity at 70.5 h turned out to be 21.2%.

With `CC(c1nc(-c2cccnc2)no1)N(C)CCCOc1ccccc1` (stereo not given), the cytotoxicity at 70.5 h is -3.8%.

On to `COc1ccc(Br)cc1S(=O)(=O)N(C)Cc1ccc(N(C)C)cc1`, for which the cytotoxicity at 70.5 h is -3.08%.

With `Cc1cc(NC(=O)C2CCN(c3ncccc3C#N)CC2)no1`, the cytotoxicity at 70.5 h is 3.46%.

Consider `CCc1ccc(N2CCC(NS(=O)(=O)N(CC)CC)CC2)cc1`, for which the cytotoxicity at 70.5 h was -5.14%.

In the case of `CN1CCOC(CNC(=O)CCCc2ccccc2)C1` (stereo not given), the cytotoxicity at 70.5 h is -4.54%.

`CCOC(=O)N(C)CC(=O)NCCc1coc(-c2ccc(C)cc2)n1`: the cytotoxicity at 70.5 h is -8.2%.

`CCc1nnc(NC(=O)NCCN(C)C(=O)OC(C)(C)C)s1`: the cytotoxicity at 70.5 h is -9.9%.

`CN(Cc1ccccc1CNC(=O)C1CNC(=O)N1)C1CCCCC1` (stereo not given): the cytotoxicity at 70.5 h is -4.23%.

On to `CCOc1ccccc1CN(C)C(C)c1nc(-c2cccnc2)no1` (stereo not given), for which the cytotoxicity at 70.5 h is -3.75%.

In the case of `O=C(COC1CCCC1)NCc1ccc(O)c(F)c1`, the cytotoxicity at 70.5 h is -3.82%.

With `CC1CCN(c2ccc(C(=O)N3CCCC3c3ccc[nH]3)cn2)CC1` (stereo not given), the cytotoxicity at 70.5 h stood at 5.1%.

Consider `CN1CCN(CCOc2ccc(NC(=O)c3ccc[nH]3)cc2)CC1`, for which the cytotoxicity at 70.5 h is -2.18%.

Regarding `CCN(C(=O)Cn1cc(NC(=O)C(C)(C)C)cn1)c1ccccc1`, the cytotoxicity at 70.5 h was -0.681%.

Regarding `CC(Cn1ccnc1)NC(=O)NCCN1CCCCCC1=O` (stereo not given), the cytotoxicity at 70.5 h was -4.74%.

On to `CC(=O)N1CCN(C(=O)NC(C)Cn2ccnc2)CC1` (stereo not given), for which the cytotoxicity at 70.5 h was -0.59%.

As for `Cc1nc(CN2CCN(CC(O)CN3CCOCC3)CC2)oc1C` (stereo not given), the cytotoxicity at 70.5 h was found to be 8.53%.

On to `CC(C)c1nc(CN2CCN(C(=O)OC(C)(C)C)C(C)C2)no1` (stereo not given), for which the cytotoxicity at 70.5 h was -2.12%.

Take `CN(C)c1ncccc1N(C)C(=O)Cn1cc(-c2ccccc2)nn1`: the cytotoxicity at 70.5 h is -3.41%.

Turning to `CC(c1ccccc1)N(C)CC(=O)NCCC#N` (stereo not given), the cytotoxicity at 70.5 h is -11.2%.

In the case of `COc1cccc(CNC2CCc3ccc(C)cc32)n1` (stereo not given), the cytotoxicity at 70.5 h is -9.15%.

For `CNC(=O)c1cccc(CN2CCC(N(C)Cc3ncc(C)o3)C2)c1` (stereo not given), the cytotoxicity at 70.5 h came out at 22.2%.

For `O=C(NCCNc1ncccn1)NCCSC(F)(F)F`, the cytotoxicity at 70.5 h is -10.7%.

As to `O=C(Cc1cccs1)NCC(=O)Nc1cn[nH]c1`, the cytotoxicity at 70.5 h was -11.9%.

As to `CC(Oc1ccc(C(=O)NCCNS(C)(=O)=O)cn1)c1ccccc1` (stereo not given), the cytotoxicity at 70.5 h is -8.66%.

In the case of `Cc1nc(CN2CCN(c3ccc(SC(C)C)nn3)CC2)cs1`, the cytotoxicity at 70.5 h was 11.1%.

Consider `CCC(C)(C)NC(=O)c1ccc(NC(=O)NCc2cc(C)on2)cc1`, for which the cytotoxicity at 70.5 h is -6.36%.

For `NS(=O)(=O)CCNC(=O)c1ccc(OCc2ccccc2)nc1`, the cytotoxicity at 70.5 h was 20.5%.

`O=C(CCc1ccc(C(F)(F)F)cc1)N1CCCS1(=O)=O`: the cytotoxicity at 70.5 h was -4.91%.

Regarding `O=C(CCc1ccc(OC(F)(F)F)cc1)N1CCCS1(=O)=O`, the cytotoxicity at 70.5 h was -3.82%.

For `Cc1cc(S(=O)(=O)N2CCOCC2C#N)ccc1F` (stereo not given), the cytotoxicity at 70.5 h stood at 13.3%.

As to `CC(Cc1ccc(C(F)(F)F)cc1)C(=O)N1CCCS1(=O)=O` (stereo not given), the cytotoxicity at 70.5 h was -9.41%.

Take `CN(C)CCn1ccc(NC(=O)NC(C)(C)c2nccs2)n1`: the cytotoxicity at 70.5 h is -12.6%.

Consider `CCc1nc(CC)n(CC(=O)N(C)Cc2ccc(F)cc2)n1`, for which the cytotoxicity at 70.5 h was -4.65%.

Regarding `Cc1ccc(S(=O)(=O)N2CCOCC2C#N)cc1Br` (stereo not given), the cytotoxicity at 70.5 h is -6.92%.

In the case of `CC(NC(=O)NCCCO)c1ccc(-c2ccncc2)cc1` (stereo not given), the cytotoxicity at 70.5 h is -9.46%.

Take `OCCN1CCN(Cc2cn(-c3ccccc3)nn2)CC1`: the cytotoxicity at 70.5 h is -11.9%.

In the case of `CC(C)CN(c1cn[nH]c1)S(=O)(=O)c1cccc(C#N)c1`, the cytotoxicity at 70.5 h was -6.94%.

Consider `C=C(C)CN(c1cn[nH]c1)S(=O)(=O)c1cccc(C#N)c1`, for which the cytotoxicity at 70.5 h was -5.38%.

For the molecule `CC(NCCc1nccn1Cc1ccccc1)c1cccs1` (stereo not given), the cytotoxicity at 70.5 h is 13.3%.

As for `COc1cccc(CNC2CCCOc3cc(C)ccc32)n1` (stereo not given), the cytotoxicity at 70.5 h was -9.25%.

Take `O=C1CCCN1CCCN1CCCCC1Cn1cncn1` (stereo not given): the cytotoxicity at 70.5 h was -5.51%.

For the molecule `Cc1nc(CN2CCCN(CC(=O)N(C)C(C)(C)C#N)CC2)no1`, the cytotoxicity at 70.5 h was -10.4%.

With `O=C1OCCC1N1CCN(c2cnccn2)CC1` (stereo not given), the cytotoxicity at 70.5 h is -8.4%.

Take `CCCc1nnc(SCC(=O)Nc2cc(C(C)(C)C)nn2C)[nH]1`: the cytotoxicity at 70.5 h is -13.2%.

As to `Cc1cc(NC(=O)N2CCN(C)CC2C)n(C(C)(C)C)n1` (stereo not given), the cytotoxicity at 70.5 h is -9.8%.

Regarding `N#Cc1cc(Cl)ccc1N1CCOC(C(N)=O)C1` (stereo not given), the cytotoxicity at 70.5 h was -0.791%.

As to `CC(C)(C)NC(=O)N1CCN2C(=O)OCC2C1` (stereo not given), the cytotoxicity at 70.5 h was -3.52%.

`NC(=O)N1CCCN(C2CCc3ccc(F)cc32)CC1` (stereo not given): the cytotoxicity at 70.5 h is -1.61%.

With `CN1CCC(O)(CNCc2ccc(F)c(C(F)(F)F)c2)CC1`, the cytotoxicity at 70.5 h was 22.4%.

For the molecule `Fc1ccc(NCc2ccncc2)c(OC(F)F)c1`, the cytotoxicity at 70.5 h is -5.76%.

Regarding `Cn1nc(C(C)(C)C)cc1NC(=O)CSc1nnc[nH]1`, the cytotoxicity at 70.5 h was -4.97%.

In the case of `O=C(CN1CCOCC1)N1CCN(C2CCc3ccc(F)cc32)CC1` (stereo not given), the cytotoxicity at 70.5 h was -4.68%.

On to `CCCC(=O)NCc1cccc(C(=O)OC)c1`, for which the cytotoxicity at 70.5 h is -9.06%.

Regarding `CS(=O)(=O)NCCNC(=O)NC1(c2ccc(F)cc2)CCCC1`, the cytotoxicity at 70.5 h is -9.82%.

As for `Cn1nc(CC(C)(C)C)cc1NC(=O)c1ccc2[nH]nnc2c1`, the cytotoxicity at 70.5 h stood at 19%.

On to `COc1cc2nc(NCc3scnc3C)nc(N)c2cc1OC`, for which the cytotoxicity at 70.5 h is 8.57%.

For the molecule `Cc1nonc1NC(=O)C1SCCc2sccc21` (stereo not given), the cytotoxicity at 70.5 h stood at 32.5%.

Consider `CCc1cnc(N2CCN(CC(=O)Nc3c(C)n[nH]c3C)CC2)s1`, for which the cytotoxicity at 70.5 h is -3.55%.

`c1cc(-c2noc(-c3cc(C4CC4)on3)n2)cc(N2CCCCC2)n1`: the cytotoxicity at 70.5 h was -7.87%.

On to `Cc1cc(C)c(CNCC(O)c2ccc(F)c(F)c2)c(C)c1` (stereo not given), for which the cytotoxicity at 70.5 h is -11.4%.

`Cc1n[nH]c(C)c1CNCC(O)c1cccc(Cl)c1` (stereo not given): the cytotoxicity at 70.5 h is -13.1%.
